Results reported in ChEMBL document CHEMBL1201862, “PubChem BioAssay data set” (2004).
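96-well plates; 48 h exposure; 5 concentrations. Endpoints by linear interpolation between flanking doses. Not reached: highest tested concentration assigned. GI50 is the concentration that inhibits growth by half.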 The source made the active and inactive calls. Cut-off read from the data, not from the text of the source: active = GI50 up to about 1.1 µM and inactive = higher.

Tests used:
Assay in all cases: NCI tumour cell line growth inhibition, 48 h
HCT-15 = tested on: HCT-15
HL-60 = tested on: HL-60
Malme-3M = tested on: Malme-3M
CCRF-CEM = tested on: CCRF-CEM
NCI/ADR-RES = tested on: NCI/ADR-RES
EKVX = tested on: EKVX
A549 = tested on: A549
SK-MEL-5 = tested on: SK-MEL-5
SF-539 = tested on: SF-539
UACC-62 = tested on: UACC-62
HOP-62 = tested on: HOP-62
MDA-MB-435 = tested on: MDA-MB-435
M14 = tested on: M14
HT-29 = tested on: HT-29
Hs-578T = tested on: Hs-578T
U-251 = tested on: U-251
OVCAR-3 = tested on: OVCAR-3
SN12C = tested on: SN12C
SR = tested on: SR
RPMI-8226 = tested on: RPMI-8226

Row | SMILES | GI50 (HCT-15) [µM] | GI50 (HL-60) | GI50 (Malme-3M) | GI50 (CCRF-CEM) | GI50 (NCI/ADR-RES) | GI50 (EKVX) | GI50 (A549) | GI50 (SK-MEL-5) | GI50 (SF-539) | GI50 (UACC-62) | GI50 (HOP-62) | GI50 (MDA-MB-435) | GI50 (M14) | GI50 (HT-29) | GI50 (Hs-578T) | GI50 (U-251) | GI50 (OVCAR-3) | GI50 (SN12C) | GI50 (SR) | GI50 (RPMI-8226)
1 | N=C(N)NC(=N)Nc1ccccc1.Sc1nc2ccccc2s1 | > 100 | > 100 µM (inactive) | > 100 µM (inactive) | > 100 µM (inactive) | > 100 µM (inactive) | > 100 µM (inactive) | > 100 µM (inactive) | > 100 µM (inactive) | > 100 µM (inactive) | > 100 µM (inactive) | > 100 µM (inactive) | > 100 µM (inactive) | > 100 µM (inactive) | > 100 µM (inactive) | > 100 µM (inactive) | > 100 µM (inactive) | 0.532 µM (active) | > 100 µM (inactive) |  | 
2 | CC(C)Cn1cnc2c(Sc3c([N+](=O)[O-])ncn3C)nc(N)nc21 | > 59.8 | 30.3 µM (inactive) | 30.8 µM (inactive) | 38.6 µM (inactive) | > 100 µM (inactive) | > 50.8 µM (inactive) | > 67.9 µM (inactive) | 15.2 µM (inactive) | > 23.7 µM (inactive) | > 50.2 µM (inactive) | > 80.4 µM (inactive) | 37.5 µM (inactive) | > 52.2 µM (inactive) | > 100 µM (inactive) |  | > 87.1 µM (inactive) | > 35 µM (inactive) | > 64.6 µM (inactive) | 38.7 µM (inactive) | > 52.7 µM (inactive)
3 | Cc1ccc(/C=C2\Cc3cc(C)c(C)cc3C2=O)c(C(=O)O)c1 | 27.5 | 54.3 µM (inactive) | 42.1 µM (inactive) | 27 µM (inactive) |  | 87.7 µM (inactive) | 30.8 µM (inactive) | 29.1 µM (inactive) | 13.7 µM (inactive) | 61.7 µM (inactive) | 33.7 µM (inactive) |  |  | 33.3 µM (inactive) | 37.9 µM (inactive) | 26.1 µM (inactive) | 37.9 µM (inactive) | 30.5 µM (inactive) | 52.2 µM (inactive) | 40.4 µM (inactive)
4 | CC1=C(O)C(=O)C2C(=O)C1C1Cc3ccccc3C21 (stereo not given) | > 100 | > 100 µM (inactive) | > 100 µM (inactive) | > 100 µM (inactive) |  | > 100 µM (inactive) | > 100 µM (inactive) | > 100 µM (inactive) | > 100 µM (inactive) | > 100 µM (inactive) | > 100 µM (inactive) |  | > 100 µM (inactive) | > 100 µM (inactive) |  | > 100 µM (inactive) | > 100 µM (inactive) |  | > 100 µM (inactive) | > 100 µM (inactive)
5 | O=C1Cc2cc3ccccc3nc2-c2ccccc2N1 | 96.6 | > 100 µM (inactive) | > 100 µM (inactive) | > 100 µM (inactive) | 31.6 µM (inactive) | 67 µM (inactive) | 63.7 µM (inactive) | > 100 µM (inactive) | 69.7 µM (inactive) | > 100 µM (inactive) | 56 µM (inactive) | > 100 µM (inactive) | > 100 µM (inactive) | 55.1 µM (inactive) | 28.8 µM (inactive) | 60 µM (inactive) | 73.1 µM (inactive) | > 100 µM (inactive) |  | 
6 | O=[N+]([O-])[C@@H]1C2C=CC(C2)[C@H]1Cl (stereo not given in full) | > 100 | > 100 µM (inactive) | > 100 µM (inactive) | > 100 µM (inactive) |  | > 100 µM (inactive) | > 100 µM (inactive) | > 100 µM (inactive) | > 100 µM (inactive) | > 100 µM (inactive) | > 100 µM (inactive) |  | > 100 µM (inactive) | > 100 µM (inactive) |  | > 100 µM (inactive) | > 100 µM (inactive) | > 100 µM (inactive) | > 100 µM (inactive) | > 100 µM (inactive)
7 | CN1c2ccccc2C2c3c(O)ccc(O)c3C=C([N+](=O)[O-])C21 (stereo not given) | 1.08 | 0.684 µM (active) |  | 1.04 µM (active) | 1.04 µM (active) | 1.67 µM (inactive) | 1.56 µM (inactive) | 0.548 µM (active) | 1.44 µM (inactive) | 0.957 µM (active) | 2.11 µM (inactive) | 0.199 µM (active) | 0.513 µM (active) | 0.136 µM (active) |  | 0.65 µM (active) | 0.0329 µM (active) | 0.312 µM (active) | 0.569 µM (active) | 1.11 µM (active)
8 | Oc1c(Cl)c(Cl)c(O)c2c1CCCC2 | 12.9 |  | 2.84 µM (inactive) | 2.08 µM (inactive) | 15.5 µM (inactive) | 7.85 µM (inactive) | 21 µM (inactive) | 13 µM (inactive) | 8.69 µM (inactive) | 13.4 µM (inactive) | 25.4 µM (inactive) | 16.4 µM (inactive) | 15.5 µM (inactive) | 19.1 µM (inactive) | 14.6 µM (inactive) | 17.5 µM (inactive) |  | 14.7 µM (inactive) |  | 2.72 µM (inactive)
